The results in this text go back to ChEMBL document CHEMBL1201862, “PubChem BioAssay data set” (2004).

Holding throughout (test): NCI-60 cell line screen, 48 h
In experiment [1] the test system is TK-10.
The subject of experiment [2] is LOX IMVI.
Experiment [3] relates to T47D.
The test system of experiment [4] is DU-145.
Experiment [5] has as its system NCI-H522.
Experiment [6] has as its system SK-MEL-2.
In experiment [7] the test system is ACHN.
Experiment [8] deals with NCI/ADR-RES.
Experiment [9] relates to HOP-92.
In experiment [10] the test system is PC-3.
The subject of experiment [11] is A498.
Experiment [12] relates to CCRF-CEM.
Experiment [13] concerns SR.
In experiment [14] the test system is Malme-3M.
Experiment [15] deals with CAKI-1.
In experiment [16] the test system is NCI-H226.
Experiment [17] relates to MDA-N.

The structures appear in SMILES notation.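 Cells were grown in 96-well plates and exposed to each compound for 48 hours at five concentrations; endpoints were interpolated linearly between bracketing concentrations, or set to the highest concentration if not reached. GI50: concentration for 50% inhibition of growth.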 Active and inactive are the calls of the source. Cut-off read from the data, not from the text of the source: active = GI50 up to about 1.1 µM and inactive = higher.

As to `CC(=O)Nc1ccc(/C=C/C(=O)N2CC(CCl)c3c2cc(N)c2ccccc32)cc1` (stereo unspecified), the GI50 is < 0.005 µM (active) in experiment [1]; < 0.005 µM (active) in experiment [2]; 0.01 µM (active) in experiment [3]; < 0.005 µM (active) in experiment [4]; < 0.005 µM (active) in experiment [5]; < 0.005 µM (active) in experiment [6]. Moreover, the GI50 in [7], in experiment [8], in experiment [9], in [10], in experiment [11] and in [12] was < 0.005 µM (active) in each case. Besides, the GI50 in experiment [13] is < 0.005 µM (active); in experiment [14] it was < 0.005 µM (active); in experiment [15] it was < 0.005 µM (active); in [16], < 0.005 µM (active); in experiment [17] it was 0.00553 µM (active).
Take `C/C(=C\c1ccc(Cl)cc1)C(C)(C)C(=O)O`: the GI50 in [1], in [3], in experiment [4], in [5], in experiment [6] and in experiment [7] was > 100 µM (inactive) each time. Moreover, the GI50 was > 100 µM (inactive) in experiment [8]; > 100 µM (inactive) in experiment [9]; > 100 µM (inactive) in [10]; > 100 µM (inactive) in experiment [11]; 52.5 µM (inactive) in experiment [12]; 3.75 µM (inactive) in [13]. The GI50 in [14], in experiment [15], in experiment [16] and in experiment [17] was > 100 µM (inactive) in each case.
On to `CN1C[C@H]2[C@@H](C1=O)[C@H](c1ccccc1)ON2C`, for which the GI50 in experiment [1], in [2], in experiment [3], in experiment [4], in experiment [5] and in experiment [6] was > 100 µM (inactive) each time. The GI50 was > 100 µM (inactive) in experiment [7]; > 100 µM (inactive) in experiment [8]; 59.2 µM (inactive) in experiment [9]; > 100 µM (inactive) in experiment [10]; > 100 µM (inactive) in experiment [12]; > 100 µM (inactive) in experiment [13]. In addition, the GI50 in experiment [15], in experiment [16] and in [17] was > 100 µM (inactive) in each case.
In the case of `CN(CCO)CCC1COc2ccccc2O1` (stereo unspecified), the GI50 is > 10 µM (inactive) in experiment [1]; > 10 µM (inactive) in experiment [2]; > 10 µM (inactive) in [3]; > 10 µM (inactive) in experiment [4]; 2.21 µM (inactive) in experiment [5]; > 10 µM (inactive) in experiment [6]. In addition, the GI50 in [7], in experiment [8], in [10], in experiment [11], in experiment [12] and in experiment [13] was > 10 µM (inactive) throughout. The GI50 in experiment [14], in [15], in experiment [16] and in experiment [17] was > 10 µM (inactive) each time.
As for `Cc1nnc2sc(N/N=C/c3ccccc3)nn12`, the GI50 in [1], in experiment [2], in experiment [3], in [4], in experiment [5] and in [6] was > 100 µM (inactive) each time. The GI50 in experiment [7], in experiment [8], in [10], in experiment [11], in [12] and in [14] was > 100 µM (inactive) each time. Further, the GI50 in experiment [15], in experiment [16] and in experiment [17] was > 100 µM (inactive) throughout.
`N#C/C(=C\c1ccc(Br)cc1)c1nc(-c2cc3ccccc3oc2=O)cs1`: the GI50 is 10.2 µM (inactive) in experiment [1]; 24.8 µM (inactive) in experiment [2]; 22.7 µM (inactive) in [3]; 15.7 µM (inactive) in experiment [4]; 7.98 µM (inactive) in experiment [5]; 17.1 µM (inactive) in experiment [6]. The GI50 in experiment [7] is 10.8 µM (inactive); in [8], 11.9 µM (inactive); in experiment [9], 11 µM (inactive); in experiment [10], 21 µM (inactive); in experiment [12], 41.8 µM (inactive); in experiment [13], 34 µM (inactive). Also, the GI50 is 10.5 µM (inactive) in experiment [14], 48.4 µM (inactive) in [15], 11.9 µM (inactive) in experiment [16] and 17.7 µM (inactive) in experiment [17].
With `CC1=C2C(=C[C@H]3[C@]4(C)CCCC(C)(C)[C@H]4CC[C@]34O[C@H]24)OC1=O`, the GI50 in experiment [1], in experiment [4], in experiment [5], in experiment [6], in experiment [7] and in [8] was > 100 µM (inactive) in each case. Besides, the GI50 in [9], in [10], in experiment [11], in experiment [14], in experiment [16] and in experiment [17] was > 100 µM (inactive) in each case.
On to `O=C1C[C@@H](C(=O)OCc2ccccc2)NC(=O)C[C@@H](C(=O)OCc2ccccc2)NC(=O)C[C@@H](C(=O)OCc2ccccc2)N1`, for which the GI50 in [1] was 19.6 µM (inactive); in experiment [2], > 100 µM (inactive); in experiment [3], > 100 µM (inactive); in [4] it was > 100 µM (inactive); in experiment [5], 36.6 µM (inactive); in [6], 13 µM (inactive). Further, the GI50 was 23 µM (inactive) in experiment [7]; > 100 µM (inactive) in [8]; 20.7 µM (inactive) in [9]; > 100 µM (inactive) in experiment [10]; 27.5 µM (inactive) in experiment [11]; 0.0675 µM (active) in [12]. The GI50 in experiment [13] was 4.06 µM (inactive); in experiment [15], > 100 µM (inactive); in experiment [16], > 100 µM (inactive); in experiment [17], > 100 µM (inactive).
With `Clc1ncc(C(Cl)(Cl)Cl)nc1-c1ccccc1`, the GI50 in experiment [1] is 2.3 µM (inactive); in [2] it was 4.13 µM (inactive); in experiment [3] it was 1.96 µM (inactive); in experiment [4], 1.61 µM (inactive); in experiment [5], 2.52 µM (inactive); in experiment [6] it was 2.27 µM (inactive). The GI50 in [7] was 1.68 µM (inactive); in experiment [8], 4.07 µM (inactive); in [9], 1.99 µM (inactive); in experiment [10], 1.78 µM (inactive); in experiment [12], 14.6 µM (inactive); in [13] it was 3.85 µM (inactive). The GI50 in experiment [14] was 5.14 µM (inactive); in experiment [15] it was 2.2 µM (inactive); in experiment [16], 18.4 µM (inactive); in experiment [17], 1.87 µM (inactive).
Take `CC1(C)CNC(=O)C2(/C=N/C(C)(C)CNC(=O)C3(/C=N/1)CCCO3)CCCO2` (stereo unspecified): the GI50 in [1], in experiment [3], in experiment [4], in [5], in [7] and in experiment [8] was > 10 µM (inactive) throughout. Besides, the GI50 in [9], in experiment [10], in experiment [11], in experiment [12], in experiment [13] and in experiment [14] was > 10 µM (inactive) throughout. Moreover, the GI50 in experiment [15] and in experiment [17] was > 10 µM (inactive) throughout.
`CC(C)(C)[Si](C)(C)OCC1CCC(n2cnc3c(N)ncnc32)O1` (stereo unspecified): the GI50 in [1] was > 100 µM (inactive); in experiment [2], > 100 µM (inactive); in [3], 27.2 µM (inactive); in [4], 73.8 µM (inactive); in experiment [6], 32.1 µM (inactive); in experiment [9] it was > 100 µM (inactive). Further, the GI50 is 28.2 µM (inactive) in experiment [10]; > 100 µM (inactive) in [11]; 13.9 µM (inactive) in experiment [12]; > 10 µM (inactive) in experiment [13]; > 100 µM (inactive) in [15]; > 100 µM (inactive) in [16]. The GI50 in [17] was 47.1 µM (inactive).
Turning to `N#CSCC1COc2ccccc2O1` (stereo unspecified), the GI50 was > 10 µM (inactive) in experiment [1]; 3.78 µM (inactive) in experiment [2]; > 10 µM (inactive) in experiment [3]; > 10 µM (inactive) in experiment [4]; 2.62 µM (inactive) in [5]; > 10 µM (inactive) in [6]. In addition, the GI50 was > 10 µM (inactive) in [7]; > 10 µM (inactive) in experiment [8]; > 10 µM (inactive) in experiment [10]; > 10 µM (inactive) in [11]; 0.628 µM (active) in experiment [12]; 2.58 µM (inactive) in experiment [13]. The GI50 is > 10 µM (inactive) in experiment [14], > 10 µM (inactive) in experiment [15], 6.11 µM (inactive) in experiment [16] and > 10 µM (inactive) in experiment [17].
As for `COc1cc(C2c3[nH]c4ccccc4c3[C@@H](Nc3ccc(F)cc3)[C@H]3COC(=O)N23)cc(OC)c1O` (stereo partly specified), the GI50 was 1.97 µM (inactive) in experiment [1]; 1.21 µM (inactive) in experiment [2]; 2.25 µM (inactive) in experiment [3]; 0.759 µM (active) in [4]; 0.248 µM (active) in experiment [7]; 8.13 µM (inactive) in experiment [8]. In addition, the GI50 in experiment [9] is 2.26 µM (inactive); in experiment [10] it was 1.91 µM (inactive); in [11], 2.13 µM (inactive); in experiment [12], 0.296 µM (active); in experiment [14] it was 2.49 µM (inactive); in experiment [15], 0.828 µM (active). Also, the figures for the GI50 in [16] and in [17] were 0.815 µM (active) and 2.3 µM (inactive), respectively.
